Holding throughout (assay type): cell-based
Experiment [1] concerns the target T1, LXRβ - coactivator SRC-1 interaction (Homo sapiens, UniProt P55055).
T1 construct: expression plasmids for Gal-SRC-1, VP-LXRα LBD or VP-LXRβ LBD, the RXR LBD; expressed in transfected cells; host or cells: CV-1 cells
As to the kind of experiment: Mammalian two-hybrid assay Gal-SRC-1 / VP-LXRβ LBD / RXR LBD in CV-1 cells. The settings on record: 40 hours. The text has this: (§1) One characteristic of nuclear receptor antagonists is their ability to displace coactivators bound to ligand-activated receptors. Thus, if Clotrimazole is an antagonist of LXR, it should inhibit the recruitment of coactivators. To test this, a mammalian two-hybrid assay was used. In this assay, CV-1 cells were transfected with Gal-SRC-1, VP-LXRα or VP-LXRβ, the RXR LBD and a reporter construct. In this type of assay, therefore, only a protein-protein interaction between the coactivator SRC-1 and LXR can result in transcriptional activity. The mammalian two-hybrid assay of FIG. 6 was performed by transfecting CV-1 cells with expression plasmids for Gal-SRC-1, VP-LXRα LBD or VP-LXRβ LBD, the RXR LBD and the USAGx4 Tkluc reporter. Cells were treated for 40 hours with Clotrimazole before luciferase and β-galactosidase activities were measured. Gal-SRC in FIG. 6 refers to a fusion between the Gal4 DNA binding domain and the three receptor interaction domains of SRC-1.

The target in experiment [2] is T2, LXRα - coactivator SRC-1 interaction (Homo sapiens, UniProt Q13133).
T2 construct: expression plasmids for Gal-SRC-1, VP-LXRα LBD or VP-LXRβ LBD, the RXR LBD; expressed in transfected cells; host or cells: CV-1 cells
As to the kind of experiment: Mammalian two-hybrid assay Gal-SRC-1 / VP-LXRα LBD / RXR LBD in CV-1 cells.
Excerpt: as §1

In experiment [3] the target is RXR (Homo sapiens, UniProt P19793). As to the kind of experiment: RXR activity (data not shown).
Target sequence in this assay (P19793 whole entry, the tested form may be a part): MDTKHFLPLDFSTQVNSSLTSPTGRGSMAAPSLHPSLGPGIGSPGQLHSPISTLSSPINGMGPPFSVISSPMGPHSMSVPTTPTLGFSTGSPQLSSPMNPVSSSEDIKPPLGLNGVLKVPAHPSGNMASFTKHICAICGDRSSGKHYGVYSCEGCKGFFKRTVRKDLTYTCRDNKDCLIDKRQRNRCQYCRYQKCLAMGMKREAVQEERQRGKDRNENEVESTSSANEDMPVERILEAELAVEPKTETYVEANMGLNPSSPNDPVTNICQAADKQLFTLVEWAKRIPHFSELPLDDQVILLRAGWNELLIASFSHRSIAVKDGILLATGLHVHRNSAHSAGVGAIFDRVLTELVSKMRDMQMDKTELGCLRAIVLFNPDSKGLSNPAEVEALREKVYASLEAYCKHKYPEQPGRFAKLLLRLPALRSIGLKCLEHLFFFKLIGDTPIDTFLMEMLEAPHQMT
Experiment [4] concerns −241/+12 mSREBP-1c promoter. As to the kind of experiment: SREBP-1c promoter reporter assay in CV-1 cells. Conditions: 10 μM. On the procedure: This promoter is directly regulated by LXR via two LXREs present within the first 240 base pairs of the proximal promoter. Thus, we transfected CV-1 cells with the −241/+12 mSREBP-1c promoter along with LXRα or LXRβ. CV-1 cells were transiently transfected with full length LXRα or LXRβ, the SREBP-1c promoter or the SREBP-1c LXREm reporter and CMX-β-gal (as an internal control) in lipid-stripped serum. After transfection, the cells were treated with 10 μM Clotrimazole. The luciferase activity was normalized to the internal β-galactosidase control (reporter activity).
On the technique in general: In a reporter assay the amount or activity of a reporter protein is the signal.

Experiment [5] has as its target T3, LXRα-RXR heterodimers and receptor interaction domains of coactivator SRC1 (Homo sapiens, UniProt Q13133).
T3 construct: expressed in transfected cells; host or cells: CV-1 cells
T3 sequence (Q13133 209-447 limits assumed): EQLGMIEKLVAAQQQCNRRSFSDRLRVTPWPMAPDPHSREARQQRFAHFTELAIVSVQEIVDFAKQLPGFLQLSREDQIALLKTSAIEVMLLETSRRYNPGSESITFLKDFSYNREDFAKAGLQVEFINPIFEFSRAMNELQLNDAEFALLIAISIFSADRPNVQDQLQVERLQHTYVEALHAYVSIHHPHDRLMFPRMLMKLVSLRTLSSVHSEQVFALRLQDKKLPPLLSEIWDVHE
T3 sequence (P19793 227-458 partner limits assumed): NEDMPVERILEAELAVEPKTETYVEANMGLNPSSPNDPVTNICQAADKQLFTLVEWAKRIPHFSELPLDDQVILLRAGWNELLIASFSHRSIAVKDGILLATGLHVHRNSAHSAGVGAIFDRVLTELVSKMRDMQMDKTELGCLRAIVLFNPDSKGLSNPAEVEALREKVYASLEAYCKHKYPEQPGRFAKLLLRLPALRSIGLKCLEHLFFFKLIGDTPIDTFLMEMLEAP
As to the kind of experiment: LXR-coactivator association, VP-L-hLXRα / L-hRXRα / GAL4-SRC1 in CV-1 cells. Conditions: 20 μM, coactivator GAL4-SRC1, CV-1 cells. On the procedure: CV-1 cells were grown in DMEM supplemented with 10% resin-charcoal stripped fetal bovine serum, 50 U/ml penicillin G and 50 μg/ml streptomycin sulfate at 37° C. in 5% CO2. Cells were plated to 50-80% confluence one day prior to transfection using phenol red-free DMEM-FBS. The cells were transfected by lipofection using N-[1-(2,3-dioleoyloxy)propyl]-N,N,N-ammonium methyl sulfate according to manufacturer's instructions (Boehringer Mannheim).
Genes encoding the following full-length proteins, which are suitable for use in the studies described herein, were cloned into pCMX: human RXRα (Gene Bank accession X52773) and human LXRα (GenBank accession U22662). The cells were transfected with CMX-βgal and luciferase constructs. The CMX-βGal construct contained the ligand binding domain of human RXR (hRXRα) and the ligand binding domain of human LXRα (hLXRα) as indicated in FIG. 1. The luciferase reporter construct (LXREx3 TK-Luc) contained the herpes virus thymidine kinase promoter (−105/+51) linked to three copies of the response element LXRE. After transfection, the cells were treated with 20 μM of a synthetic azole test compound or vehicle alone for 40 hours in phenol red-free DMEM-FBS.
VP-L-hLXRα contains the transactivation domain of Herpes VP16, linked to the LBD of human LXRα, L-hRXRα is the LBD of human RXRα. UASGx4 TK-Luc was the reporter gene, and the assay additionally included the coactivator GAL4-SRC1. Treatment with 20 μM azole compound as indicated was able to inhibit interactions between LXRα-RXR heterodimers and the receptor interaction domains from the coactivator SRC1.

In experiment [6] the target is T4, RXR (Homo sapiens, UniProt P19793).
T4 construct: transfecting CV-1 cells with either the RXR LBD alone; expressed in transfected cells; host or cells: CV-1 cells
As to the kind of experiment: Transient transfection assay RXR LBD alone, UASGx4 TK Luc reporter, CV-1 cells. Conditions: lipid-stripped serum. The method, then: Synthetic compounds were screened in an effort to find more specific LXR inhibitors. CV-1 cells were maintained and transfected using known methods. Forman et al., Cell 81: 687-693, 1995. CV-1 cells were transiently transfected with Gal-hLXRα, the RXR LBD, the UASGx4 TK Luc reporter and CMX-β-gal as an internal control, either in standard or in lipid-stripped serum. After transfection, cells were treated for approximately 40 hours with phenol red-free DMEM-FBS containing the indicated compounds at the following concentrations: T0901317 (100 nM), Clotrimazole (10 μM), S883417(10 μM) and S100250 (10 μM), unless otherwise specified. After exposure to ligand, the cells were harvested and assayed for luciferase and β-galactosidase activity. The luciferase activity was normalized to the internal β-galactosidase control (reporter activity).
The ability of these compounds to repress LXRα and LXRβ was compared by transfecting CV-1 cells with either the RXR LBD alone or the RXR LBD together with either Gal-LXRα or Gal-LXRβ.

SMILES strings stand for the structures.

T1 sequence (P55055 222-460 limits assumed, one chain of several): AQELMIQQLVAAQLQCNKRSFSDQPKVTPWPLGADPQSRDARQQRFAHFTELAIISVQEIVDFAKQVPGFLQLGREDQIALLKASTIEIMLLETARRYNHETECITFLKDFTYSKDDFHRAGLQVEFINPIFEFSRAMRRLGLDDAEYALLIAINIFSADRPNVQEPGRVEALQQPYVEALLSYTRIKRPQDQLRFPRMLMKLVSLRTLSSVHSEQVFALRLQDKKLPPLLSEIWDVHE

With `Clc1ccccc1C(c1ccccc1)(c1ccccc1)n1ccnc1` [Clotrimazole], the “interaction of LXRβ with coactivator SRC-1” value in experiment [1] is “inhibited this interaction”. For the same molecule, in experiment [2] (40 hours, two-hybrid), the “interaction of LXRα with coactivator SRC-1” value is on record as “inhibited this interaction”. The basal transcription result in experiment [2] (two-hybrid specificity control) is on record as “did not inhibit basal transcription”. In addition, the “effect on RXR activity” value at RXR [3] was “no effect”. For the same molecule, the SREBP-1c promoter activity result in experiment [4] (absence of LXR, lipid-stripped serum) is “repressed”. The “SREBP-1c LXREm mutant promoter activity” value in experiment [4] (both LXREs inactivated, absence or presence of LXR) is “did not repress the promoter activity”. Moreover, in experiment [4] (co-transfected LXRα), the “LXRα-induced SREBP-1c promoter activity” value is listed as “repressed the LXR-induced activity”. For the same molecule, the “LXRβ-induced SREBP-1c promoter activity” value in experiment [4] (co-transfected LXRβ) is “repressed the LXR-induced activity”. In addition, the “inhibition of LXR-coactivator association” value in experiment [5] is “inhibition of LXR-coactivator association”. The “effect on RXR” value on RXR [6] is “no effect”.

The values are drawn from patent US20050009837A1, “Modulators of lipid metabolism and methods of use” (City of Hope, priority 2003, published 2005).
